Test results published in patent US10051857B2, “Formulation component” (SYNGENTA LIMITED, priority 2011, dated 2018).

How the values were obtained:
Type in all cases: in vivo
[1] = tested on: Digitaria sanguinalis (DIGSA); assay: Glasshouse adjuvant test with mesotrione (Example 4); conditions: mesotrione 60 or 120 g/ha, adjuvant 0.2% v/v, 200 l/ha; leaf area killed; mean over two rates, six replicates, 6, 14 and 21 days
Experimental: (§1) Compound No. 2 was tested in a glasshouse against four weed species in combination with the herbicide mesotrione. An agrochemical composition was prepared containing 0.2% v/v of the adjuvant in a track sprayer and was applied at a volume of 200 liters per hectare. Mesotrione was applied at either 60 or 120 grams of pesticide per hectare on weeds which had been grown to the 1.3 or 1.4 leaf stage. The weed species were Amaranthus retroflexus (AMARE), Abutilon theophrasti (ABUTH), Brachiaria platyphylla (BRAPP), and Digitaria sanguinalis (DIGSA).
(§2) Each spray test was replicated six times. The efficacy of the herbicide was assessed visually and expressed as a percentage of the leaf area killed. Samples were assessed at time periods of 6, 14 and 21 days following application. The results shown in Table 4 below are mean averages over the two rates of mesotrione, six replicates and the three assessment timings. The results are compared to those obtained for mesotrione in combination with the commercially available tank mix adjuvant Turbocharge® D (Syngenta Crop Protection Canada, Inc.).

[2] = tested on: Abutilon theophrasti (ABUTH); assay: as above; conditions: mesotrione 60 or 120 g/ha, adjuvant 0.2% v/v, 200 l/ha; leaf area killed; mean over two rates, six replicates, 6, 14 and 21 days
Experimental: as §1, §2

[3] = tested on: Amaranthus retroflexus (AMARE); assay: as above; conditions: mesotrione 60 or 120 g/ha, adjuvant 0.2% v/v, 200 l/ha; leaf area killed; mean over two rates, six replicates, 6, 14 and 21 days
Experimental: as §1, §2

[4] = tested on: Brachiaria platyphylla (BRAPP); assay: as above; conditions: mesotrione 60 or 120 g/ha, adjuvant 0.2% v/v, 200 l/ha; leaf area killed; mean over two rates, six replicates, 6, 14 and 21 days
Experimental: as §1, §2

[5] = tested on: four weed species (AMARE, ABUTH, BRAPP, DIGSA); assay: Glasshouse adjuvant test with mesotrione (Example 4), mean across species; conditions: mesotrione 60 or 120 g/ha, adjuvant 0.2% v/v
Experimental: as §1, §2

[6] = tested on: four weed species (CHEAL, ABUTH, BRAPP, DIGSA); assay: Glasshouse adjuvant test with nicosulfuron (Example 2), mean of species
Experimental: (§3) Compound No. 2 (see Example 1 and Table 1 above) was tested in a glasshouse against four weed species in combination with the herbicide nicosulfuron. An agrochemical composition was prepared containing 0.2% v/v of the adjuvant in a track sprayer and was applied at a volume of 200 liters per hectare. Nicosulfuron was applied at either 30 or 60 grams of pesticide per hectare on weeds which had been grown to the 1.3 or 1.4 leaf stage. The weed species were Chenopodium album (CHEAL), Abutilon theophrasti (ABUTH), […] (BRAPP), and Digitaria sanguinalis (DIGSA).
(§4) Each spray test was replicated three times. The efficacy of the herbicide was assessed visually and expressed as a percentage of the leaf area killed. Samples were assessed at time periods of 7, 14 and 21 days. following application. The results shown in Table 2 below are mean averages over the two rates of nicosulfuron, three replicates and the three assessment timings.

[7] = tested on: four weed species (ABUTH, CHEAL, SETVI, XANST); assay: Glasshouse adjuvant test with fomesafen (Example 3), mean across species; conditions: fomesafen 60 or 120 g/ha, adjuvant 0.2% v/v or none
Experimental: (§5) Compound No. 2 was tested in a glasshouse against four weed species in combination with the herbicide fomesafen. An agrochemical composition was prepared containing 0.2% v/v of the adjuvant in a track sprayer and was applied at a volume of 200 liters per hectare. Fomesafen was applied at either 60 or 120 grams of pesticide per hectare on weeds which had been grown to the 1.3 or 1.4 leaf stage. The weed species were Chenopodium album (CHEAL), Abutilon theophrasti (ABUTH), Setaria viridis (SETVI), and Xanthium strumarium (XANST).
(§6) Each spray test was replicated six times. The efficacy of the herbicide was assessed visually and expressed as a percentage of the leaf area killed. Samples were assessed at time periods of 7 and 14 days following application. The results shown in Table 3 below are mean averages over the two rates of fomesafen, six replicates and the two assessment timings, and are compared to the efficacy of fomesafen in the absence of adjuvant.

[8] = tested on: Abutilon theophrasti (ABUTH); assay: Glasshouse adjuvant test with fomesafen (Example 3); conditions: fomesafen 60 or 120 g/ha, adjuvant 0.2% v/v or none, 200 l/ha; leaf area killed; mean over two rates, six replicates, 7 and 14 days
Experimental: as §5, §6

[9] = tested on: Xanthium strumarium (XANST); assay: as above; conditions: fomesafen 60 or 120 g/ha, adjuvant 0.2% v/v or none, 200 l/ha; leaf area killed; mean over two rates, six replicates, 7 and 14 days
Experimental: as §5, §6

[10] = tested on: Setaria viridis (SETVI); assay: as above; conditions: fomesafen 60 or 120 g/ha, adjuvant 0.2% v/v or none, 200 l/ha; leaf area killed; mean over two rates, six replicates, 7 and 14 days
Experimental: as §5, §6

[11] = tested on: Chenopodium album (CHEAL); assay: as above; conditions: fomesafen 60 or 120 g/ha, adjuvant 0.2% v/v or none, 200 l/ha; leaf area killed; mean over two rates, six replicates, 7 and 14 days
Experimental: as §5, §6

[12] = tested on: Digitaria sanguinalis (DIGSA); assay: Glasshouse adjuvant test with nicosulfuron (Example 2); conditions: nicosulfuron 30 or 60 g/ha, adjuvant 0.2% v/v, 200 l/ha; leaf area killed; mean over two rates, three replicates, 7, 14 and 21 days
Experimental: as §3, §4

[13] = tested on: Abutilon theophrasti (ABUTH); assay: as above; conditions: nicosulfuron 30 or 60 g/ha, adjuvant 0.2% v/v, 200 l/ha; leaf area killed; mean over two rates, three replicates, 7, 14 and 21 days
Experimental: as §3, §4

[14] = tested on: Brassica perenni (BRAPP); assay: as above; conditions: nicosulfuron 30 or 60 g/ha, adjuvant 0.2% v/v, 200 l/ha; leaf area killed; mean over two rates, three replicates, 7, 14 and 21 days
Experimental: as §3, §4

[15] = tested on: Chenopodium album (CHEAL); assay: as above; conditions: nicosulfuron 30 or 60 g/ha, adjuvant 0.2% v/v, 200 l/ha; leaf area killed; mean over two rates, three replicates, 7, 14 and 21 days
Experimental: as §3, §4

CCCCCCCCCCCCc1ccc(C(=O)NCCOCCOCCOCCOCCOCCOCCOCCO)cc1 [Compound 2, 4-DODECYL-N-[2-(2-{2-[2-(2-{2-[2-(2-HYDROXY-ETHOXY)-ETHOXY]-ETHOXY}-ETHOXY)-ETHOXY]-ETHOXY}-ETHOXY)-ETHYL]-BENZAMIDE]
Mean percentage kill DIGSA [1]: 83.4% | Mean percentage kill ABUTH [2]: 73.3% | Mean percentage kill AMARE [3]: 63.5% | Mean percentage kill BRAPP [4]: 68.2% | Mean percentage kill, Mean across species [5]: 72.1% | Mean percentage kill, Mean (g/ha) ([6]; nicosulfuron 30 or 60 g/ha, adjuvant 0.2% v/v, mean of the four weed species): 73.9% | weed control compared to Turbocharge D ([6]; nicosulfuron formulation with adjuvant, in each case (all four weed species)): superior weed control | Mean percentage kill, Mean across species [7]: 58.6% | Mean percentage kill ABUTH [8]: 90% | Mean percentage kill XANST [9]: 68.8% | Mean percentage kill SETVI [10]: 41.7% | Mean percentage kill CHEAL [11]: 34.1% | Mean percentage kill DIGSA [12]: 83.1% | Mean percentage kill ABUTH [13]: 47.1% | Mean percentage kill BRAPP [14]: 86.4% | Mean percentage kill CHEAL [15]: 80%
